{"source": "patent US20180036302A1", "about": "“TREATMENT OF MULTIPLE SCLEROSIS WITH COMBINATION OF LAQUINIMOD AND A STATIN” (Teva Pharmaceutical Industries Ltd., priority 2014, published 2018)", "key": {"[1]": {"tested_on": "MOG induced chronic Experimental Autoimmune Encephalomyelitis (EAE) model", "test": "MOG induced chronic EAE in C57Bl/6 mice", "assay_type": "in vivo", "conditions": "for % inhibition 1 (incidence) / % inhibition 2 (MMS) / % inhibition 3 (GMS): vs vehicle"}, "in vivo": {"test": "in vivo", "conditions": "male, C57BL/6, mouse, po, 5 mg/kg", "experimental": "For all PO administration groups: 1% MC in water (all PO formulations were made just prior to use).\nFasted overnight and fed 4 hr post dose, free access to water\n• 1. For plasma samples: An aliquot of 30 μL plasma sample was added with 150 μL ACN which contains IS (Dexamethasane 40 ng/mL, 5 ng/mL) for protein precipitation. The mixture was vortexed for 2 rain and centrifuged at 12000 rpm for 5 min. The 2 μL supernatant was injected into LC-MS/MS. • 2. For diluted plasma samples: An aliquot of 10 μL plasma sample was added with 90 μL blank plasma to obtain the diluted plasma samples, and the sample dilution factor is 10. An aliquot of 10 μL 10-folder-diluted plasma sample was added with 40 μL blank plasma to obtain the diluted plasma samples, and the sample dilution factor is 50. The exaction procedure for diluted samples was same as those for non-diluted samples.\nThe animals were restrained manually at the designated time points. Approx. 150 μL of blood samples were taken from the animals into K2EDTA tubes via retro-orbital puncture or cardiac puncture for terminal bleeding under anesthesia with Isoflurane. Blood sample was put on ice and centrifuged at 2000 g for 5 min (4° C.) to obtain plasma sample within 15 minutes. Plasma samples were snap frozen by placing into dry-ice.\nThe plasma samples were stored at approximately −70° C. until analysis. The backup samples are discarded after two months unless specified. The unused dosing solutions are discarded within 1 week after completion of the study."}, "[2]": {"conditions": "in vivo; cited from earlier work"}, "Multiple Sclerosis": {"tested_on": "Multiple Sclerosis", "conditions": "two phase III trials; cited from earlier work"}, "[3]": {"conditions": "Laquinimod 5 mg/kg/day gavage, Day 1-30"}, "[4]": {"conditions": "Laquinimod 25 mg/kg/day gavage, Day 1-30"}, "[5]": {"conditions": "Atorvastatin 10 mg/kg BID gavage, Day 1-30"}, "[6]": {"conditions": "Atorvastatin 50 mg/kg BID gavage, Day 1-30"}}}
{"compound": "CCN(C(=O)c1c(O)c2c(Cl)cccc2n(C)c1=O)c1ccccc1", "note": "[Laquinimod]", "values": [{"measurement": "Duration", "setting": "[1]; [3]", "result": "13.5 ± 7.9", "unit": "days"}, {"measurement": "GMS value", "setting": "[1]; [3]", "result": "1.4 ± 1.0"}, {"measurement": "Incidence", "setting": "[1]; [3]", "result": "12/15"}, {"measurement": "MMS value", "setting": "[1]; [3]", "result": "2.3 ± 1.3"}, {"measurement": "Mortality", "setting": "[1]; [3]", "result": "0/15"}, {"measurement": "Onset", "setting": "[1]; [3]", "result": "16.3 ± 7.7", "unit": "days"}, {"measurement": "% inhibition 1 (incidence)", "setting": "[1]; [3]", "result": 20, "unit": "%"}, {"measurement": "% inhibition 2 (MMS)", "setting": "[1]; [3]", "result": 37.8, "unit": "%"}, {"measurement": "% inhibition 3 (GMS)", "setting": "[1]; [3]", "result": 48.1, "unit": "%"}, {"measurement": "Duration", "setting": "[1]; [4]", "result": "4.1 ± 6.0", "unit": "days"}, {"measurement": "GMS value", "setting": "[1]; [4]", "result": "0.3 ± 0.6"}, {"measurement": "Incidence", "setting": "[1]; [4]", "result": "5/15"}, {"measurement": "MMS value", "setting": "[1]; [4]", "result": "0.7 ± 1.0"}, {"measurement": "Mortality", "setting": "[1]; [4]", "result": "0/15"}, {"measurement": "Onset", "setting": "[1]; [4]", "result": "25.63 ± 7.5", "unit": "days"}, {"measurement": "% inhibition 1 (incidence)", "setting": "[1]; [4]", "result": 66.7, "unit": "%"}, {"measurement": "% inhibition 2 (MMS)", "setting": "[1]; [4]", "result": 81.1, "unit": "%"}, {"measurement": "% inhibition 3 (GMS)", "setting": "[1]; [4]", "result": 91.9, "unit": "%"}, {"measurement": "AUCINF", "setting": "in vivo", "result": 71465, "unit": "ng·h/mL"}, {"measurement": "AUClast", "setting": "in vivo", "result": 71302, "unit": "ng·h/mL"}, {"measurement": "AUC(0-inf)", "setting": "in vivo; AUCINF", "result": 86900, "unit": "ng·h/mL"}, {"measurement": "AUC(0-t)", "setting": "in vivo; AUClast", "result": 86700, "unit": "ng·h/mL"}, {"measurement": "Cmax", "setting": "in vivo; Cmax", "result": 31100, "unit": "ng/mL"}, {"measurement": "half-life", "setting": "in vivo; Terminal t1/2", "result": 3.01, "unit": "h"}, {"measurement": "Tmax", "setting": "in vivo; Tmax", "result": 0.5, "unit": "h"}, {"measurement": "oral bioavailability", "setting": "[2]", "result": "high oral bioavailability"}, {"measurement": "safety and tolerability profile", "setting": "Multiple Sclerosis", "result": "favorable safety and tolerability profile"}]}
{"compound": "CC(C)c1c(C(=O)Nc2ccccc2)c(-c2ccccc2)c(-c2ccc(F)cc2)n1CC[C@@H](O)C[C@@H](O)CC(=O)O", "note": "[Atorvastatin, atorvastatin]", "values": [{"measurement": "Duration", "setting": "[1]; [5]", "result": "18.1 ± 2.1", "unit": "days"}, {"measurement": "GMS value", "setting": "[1]; [5]", "result": "2.5 ± 0.6"}, {"measurement": "Incidence", "setting": "[1]; [5]", "result": "15/15"}, {"measurement": "MMS value", "setting": "[1]; [5]", "result": "3.6 ± 0.5"}, {"measurement": "Onset", "setting": "[1]; [5]", "result": "12.4 ± 1.2", "unit": "days"}, {"measurement": "% inhibition 1 (incidence)", "setting": "[1]; [5]", "result": 0, "unit": "%"}, {"measurement": "% inhibition 2 (MMS)", "setting": "[1]; [5]", "result": 2.7, "unit": "%"}, {"measurement": "% inhibition 3 (GMS)", "setting": "[1]; [5]", "result": 7.4, "unit": "%"}, {"measurement": "Duration", "setting": "[1]; [6]", "result": "17.2 ± 4.9", "unit": "days"}, {"measurement": "GMS value", "setting": "[1]; [6]", "result": "2.3 ± 0.7"}, {"measurement": "Incidence", "setting": "[1]; [6]", "result": "14/15"}, {"measurement": "MMS value", "setting": "[1]; [6]", "result": "3.3 ± 1.0"}, {"measurement": "Onset", "setting": "[1]; [6]", "result": "13.8 ± 4.9", "unit": "days"}, {"measurement": "% inhibition 1 (incidence)", "setting": "[1]; [6]", "result": 6.7, "unit": "%"}, {"measurement": "% inhibition 2 (MMS)", "setting": "[1]; [6]", "result": 10.8, "unit": "%"}, {"measurement": "% inhibition 3 (GMS)", "setting": "[1]; [6]", "result": 14.8, "unit": "%"}, {"measurement": "Mortality", "setting": "[1]; mouse, in vivo", "result": "0/15"}]}
